These results are taken from patent publication EP4733303A1, “MUSCARINIC M4 RECEPTOR AGONIST AND USE THEREOF” (Haisco Pharmaceutical Group Co., Ltd., priority 2023, dated 2024).

pEC50: −log10 of the molar value.

One data set deals with T1, M4 receptor (Homo sapiens, UniProt P08173).
T1 construct: expressed in transfected cells; host or cells: CHO (M4-CHO cells)
T1 sequence (P08173 1-479): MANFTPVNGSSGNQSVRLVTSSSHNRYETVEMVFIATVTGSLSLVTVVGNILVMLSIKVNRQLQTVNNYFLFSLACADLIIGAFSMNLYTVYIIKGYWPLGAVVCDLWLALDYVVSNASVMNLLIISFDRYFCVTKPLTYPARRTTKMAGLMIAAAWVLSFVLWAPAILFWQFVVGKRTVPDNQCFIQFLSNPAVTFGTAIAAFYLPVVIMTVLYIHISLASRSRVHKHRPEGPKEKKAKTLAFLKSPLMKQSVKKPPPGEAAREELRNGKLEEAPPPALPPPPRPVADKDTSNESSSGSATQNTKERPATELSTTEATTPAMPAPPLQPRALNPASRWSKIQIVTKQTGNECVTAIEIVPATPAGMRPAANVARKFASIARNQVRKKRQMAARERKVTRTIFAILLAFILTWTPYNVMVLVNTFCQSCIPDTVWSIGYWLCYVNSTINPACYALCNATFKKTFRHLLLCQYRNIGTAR
In words: PAM agonistic activity of compound on M4 receptor (FLIPR Calcium 6 assay in M4-CHO cells). In kind it is cell-based. The conditions noted are these: with acetylcholine (Ach), final concentration 3 nM. The procedure:
• 1). Cell plating: M4-CHO cells were digested, collected, and resuspended. After cell counting, the cell suspension was seeded into a 384-well cell plate at a density of: 1.2 × 10^4 cells/25 µL/well. The cell plate was then cultured in a 37°C, 5% CO2 incubator for about 16-20 h. • 2). Day 2: Assay Buffer was prepared according to the instructions of the FLIPR Calcium 6 Assay Kit. Component A (20×) was thawed to room temperature and diluted with the Assay Buffer to prepare a loading buffer (1×), which was stored at room temperature until use. • 3). The culture medium was removed from the cell plate. 40 µL of the loading buffer (1×) was quickly added to each well. The cell plate was then centrifuged and incubated at 37°C in the dark for 120 min. • 4). Working solutions of the positive control compound and the test compounds were prepared. An acetylcholine (Ach) agonist compound solution was prepared (final concentration: 3 nM). The PAM compound and the Ach agonist solution were mixed at a 1 : 1 ratio, and the mixture was transferred into a 384-well compound source plate at 20 µL per well. • 5). The cell plate, the compound source plate, and the pipette tips were placed into the corresponding positions within the FLIPR instrument. 10 µL of the diluted compound from step 4 was added into each experimental well using the FLIPR Tetra. Data was collected at the wavelength of 515 nm-575 nm. • 6). The signal values were plotted against the compound concentrations. Nonlinear regression analysis was performed using GraphPad Prism software for curve fitting and EC50 calculation.
The experimental results are shown in Table 1, where A represents EC50 < […]; B represents 100 nM ≤ EC50 < 500 nM, and C represents 500 nM ≤ EC50. Table 1. Agonistic activity of compounds on M4 receptor

The nature of data set [1]: Pharmacokinetic test in rats (plasma and brain). In kind it is in vivo, SD rats. The conditions noted are these: male SD rats. The text has this: 3.1 Experimental animals: male SD rats, about 220 g, 6-8 weeks old, divided into an intravenous group and an intragastric group.
3.2 Experimental design: on the day of the experiment, the SD rats were randomly grouped according to their body weights. […] Table 5. Administration information
The whole blood was centrifuged to separate the plasma; the brain tissue was rinsed with cold physiological saline to remove the residual blood on the surface, drained out and then homogenized. Before analysis and detection, all samples were stored at -80°C, and the samples were quantitatively analysed by LC-MS/MS. Table 6. Pharmacokinetic parameters of test compound in plasma of rats

The nature of data set [2]: Pharmacokinetic test in mice (plasma and brain). The data set is classed as in vivo, C57 mice. The conditions noted are these: for F: i.g. 10 mg/kg versus i.v. 2.5 mg/kg. The text has this: 2.1 Experimental animals: male C57 mice, 20-25 g, divided into an intravenous group and an intragastric group.
2.2 Experimental design: on the day of the experiment, the C57 mice were randomly grouped according to their body weights. […] Table 2. Administration information
The whole blood was centrifuged to separate the plasma; the brain tissue was rinsed with cold physiological saline to remove the residual blood on the surface, drained out and then homogenized. Before analysis and detection, all samples were stored at -80°C, and the samples were quantitatively analysed by LC-MS/MS. Table 3. Pharmacokinetic parameters of test compounds in mice

The mark [3] stands for this setting: rat, in vivo, plasma, i.v. 2.5 mg/kg and i.g. 10 mg/kg groups, route of the parameter not given.
The mark [4] stands for this setting: mouse, male C57 mice, plasma, i.v. 2.5 mg/kg and i.g. 10 mg/kg groups, route of the parameter not given.
Where [5] appears, read: mouse, male C57 mice, plasma, i.v. 2.5 mg/kg and i.g. 10 mg/kg groups, route of the parameter not given, read-out: AUC0-t.
The mark [6] stands for this setting: mouse, in vivo, male C57 mice, plasma, i.v. 2.5 mg/kg and i.g. 10 mg/kg groups, route of the parameter not given.

On to `Cc1cc(C)c2c(n1)CN(C(=O)CC1CN(c3ccnc(-n4ccc(C)n4)c3)C1)C2` [Compound 29], for which the pEC50 on M4 receptor is over 7.00. This molecule also registered a F in data set [1] (i.g. 10 mg/kg versus i.v. 2.5 mg/kg) of over 98%. Besides, in data set [1] (setting [3]), the concentration peaked (Cmax) at 7960 ng/mL, the clearance was 18.9 mL/min/kg and the half-life is 38.8 min. Also, the AUC(0-t) in data set [1] (rat, in vivo, plasma, i.v. 2.5 mg/kg and i.g. 10 mg/kg groups, route of the parameter not given, read-out: AUC0-t) stood at 12200 ng·h/mL. In the case of `Cc1cc(-c2cnn(C)c2)nc2c1CN(C(=O)CC1CN(c3ccnc(OC4CC(F)(F)C4)c3)C1)C2` [Compound 104], the pEC50 on M4 receptor was over 7.00. The F in data set [2] (male C57 mice) is listed as over 98%. Besides, in data set [2] (mice, i.g. (10 mg/kg)), the “Brain tissue AUC0-t” value came to 4776 ng·h/g. Besides, in data set [2] (mouse, in vivo, po, mice, i.g. (10 mg/kg), read-out: Brain/plasma ratio), the Kp stood at 0.528. Also, the AUC(0-t) in data set [2] (mouse, in vivo, po, mice, i.g. (10 mg/kg), read-out: Plasma AUC0-t) amounted to 2520 ng·h/mL. In data set [2] (setting [4]), this molecule had a Cmax of 4540 ng/mL, a clearance of 11.1 mL/min/kg and a half-life of 132 min. In addition, in data set [2] (setting [5]), the AUC(0-t) turned out to be 16900 ng·h/mL. As to `Cc1nc(-c2cnn(C)c2)nc2c1CN(C(=O)CC1CN(c3ccnc(C(F)(F)F)c3)C1)C2` [Compound 122], the negative logarithm of the EC50 (pEC50) on M4 receptor was over 7.00. In data set [2] (male C57 mice), this molecule displayed an F of over 98%. In data set [2] (setting [6]), this molecule showed a Cmax of 6400 ng/mL, a clearance of 9.24 mL/min/kg and a half-life of 176 min. Besides, the AUC(0-t) in data set [2] (mouse, in vivo, male C57 mice, plasma, i.v. 2.5 mg/kg and i.g. 10 mg/kg groups, route of the parameter not given, read-out: AUC0-t) is 26300 ng·h/mL.

Consider `Cc1c2c(n(C)c(=O)c1F)CN(C(=O)CC1CN(c3ccnc(C(F)(F)F)c3)C1)C2` [Compound 176], for which the pEC50 at M4 receptor is over 7.00.

For the molecule `Cc1c2c(n(C(F)F)c(=O)c1F)CN(C(=O)CC1CN(c3ccnc(OC4CC(F)(F)C4)c3)C1)C2` [Compound 177], the negative logarithm of the EC50 (pEC50) at M4 receptor is over 7.00.

For the molecule `Cc1c2c(n(C(F)F)c(=O)c1F)CN(C(=O)CC1CN(c3ccnc(C(F)(F)F)c3)C1)C2` [Compound 178], on M4 receptor, the pEC50 is over 7.00. Same read-out and setting: the value for `Cc1ccn(-c2cc(N3CC(CC(=O)N4Cc5c(C)cc(=O)n(C(F)F)c5C4)C3)ccn2)n1` [Compound 179] was over 7.00; that for `Cc1cc(=O)n(C(F)F)c2c1CN(C(=O)CC1CN(c3ccnc(OC4CCOC4)c3)C1)C2` (centres unmarked) [Compound 180] was over 7.00.

Turning to `Cc1cc(=O)n(C(F)F)c2c1CN(C(=O)CC1CN(c3ccnc(Oc4cnn(C)c4)c3)C1)C2` [Compound 182], the pEC50 at M4 receptor was over 7.00. Consider `C=C1CC(Oc2cc(N3CC(CC(=O)N4Cc5c(C)cc(=O)n(C(F)F)c5C4)C3)ccn2)C1` [Compound 184], for which the negative-log EC50 (pEC50) on M4 receptor was over 7.00. The same measure, in the same setting: the value for `Cc1cc(S(C)(=O)=O)nc2c1CN(C(=O)CC1CN(c3ccnc(OC4CC(F)(F)C4)c3)C1)C2` [Compound 188] was over 7.00; that for `Cc1cc(C)c2c(n1)CN(C(=O)CC1CN(c3ccnc(Cn4cc(C(F)(F)F)cn4)c3)C1)C2` [Compound 189] was over 7.00. Same read-out and setting: the figure for `Cc1c2c(n(C(F)F)c(=O)c1F)CN(C(=O)CC1CN(c3ccnc(OC4CC4)c3)C1)C2` [Compound 195] is over 7.00; for `Cc1c2c(n(C(F)F)c(=O)c1F)CN(C(=O)CC1CN(c3ccnc(OC4CCOC4)c3)C1)C2` (centres unmarked) [Compound 198] it is over 7.00.

Consider `Cc1c2c(n(C)c(=O)c1F)CN(C(=O)CC1CN(c3ccnc(OC4CCOC4)c3)C1)C2` (centres unmarked) [Compound 199], for which the negative logarithm of the EC50 (pEC50) at M4 receptor is over 7.00.

For the molecule `Cc1cc(=O)n(C(F)F)c2c1CN(C(=O)CC1CN(c3ccnc(OC4CC(=C(F)F)C4)c3)C1)C2` (centres unmarked) [Compound 200], on M4 receptor, the pEC50 is over 7.00.

For the molecule `Cc1c2c(n(C(F)F)c(=O)c1F)CN(C(=O)CC1CN(c3ccnc(OC4CC(=C(F)F)C4)c3)C1)C2` (centres unmarked) [Compound 201], the pEC50 at M4 receptor was over 7.00. The same measure, in the same setting: the value for `Cc1cc(-c2cnn(C)c2)nc2c1CN(C(=O)CC1CN(c3nc(C4CC4)ncc3F)C1)C2` [Compound 204] was over 7.00; that for `Cc1nc(-c2cnn(C)c2)nc2c1CN(C(=O)CC1CN(c3nc(C4CC4)ncc3F)C1)C2` [Compound 207] was over 7.00. In the case of `Cc1ccn(-c2cc(N3CC(CC(=O)N4Cc5c(C)c(F)c(=O)n(C(F)F)c5C4)C3)ccn2)n1` [Compound 208], at M4 receptor, the negative-log EC50 (pEC50) was over 7.00. Turning to `Cc1ccn(-c2cc(N3CC(CC(=O)N4Cc5c(C)c(F)c(=O)n(C)c5C4)C3)ccn2)n1` [Compound 209], the negative-log EC50 (pEC50) on M4 receptor is over 7.00. Still for that read-out and setting: the value for `Cc1c2c(n(C)c(=O)c1F)CN(C(=O)CC1CN(c3ccnc(OC4CCOC4)c3)C1)C2` (centres unmarked) [Compound 210] was over 7.00; that for `Cc1ncn(-c2cc(N3CC(CC(=O)N4Cc5c(C)c(F)c(=O)n(C)c5C4)C3)ccn2)n1` [Compound 211] was over 7.00. The same measure, in the same setting: the figure for `Cc1c2c(n(C)c(=O)c1F)CN(C(=O)CC1CN(c3ccnc(OC4CC(=C(F)F)C4)c3)C1)C2` (centres unmarked) [Compound 213] is over 7.00; for `Cc1c2c(n(C)c(=O)c1F)CN(C(=O)CC1CN(c3ccnc(Oc4cnn(C)c4)c3)C1)C2` [Compound 214] it is over 7.00. Same read-out and setting: the value for `Cc1c2c(n(C)c(=O)c1F)CN(C(=O)CC1CN(c3ccnc(OC4CC4)c3)C1)C2` [Compound 215] was over 7.00. As to `Cc1cc(-c2cnoc2)nc2c1CN(C(=O)CC1CN(c3ccnc(OC4CC(F)(F)C4)c3)C1)C2` [Compound 216], at M4 receptor, the negative-log EC50 (pEC50) was over 7.00. Turning to `Cc1cc(C)c2c(n1)CN(C(=O)CC1CN(c3ccnc(C(F)(F)F)c3)C1)C2` [DZ-01, reference compound], in data set [2] (male C57 mice), the F is over 98%. In data set [2] (setting [4]), this molecule showed a Cmax of 3800 ng/mL, a clearance of 75.1 mL/min/kg and a half-life of 73.8 min. Besides, the AUC(0-t) in data set [2] (setting [5]) was 3610 ng·h/mL.

For orientation: pEC50 means the negative decadic logarithm of the EC50, by convention in mol/L. What is called Cmax is the maximum level reached in the sampled fluid or tissue. The term clearance denotes a measure of how efficiently the substance is removed, as volume per time. Broadly, the half-life is the time in which the quantity being followed falls by half. Higher therefore signals slow loss.
